Assay results reported in patent US8962684B2, “Antioxidant composition” (Shiseido Company, Ltd., priority 2009, dated 2015).

Key:
[1] = test system: human neonatal skin fibroblast cells (Cryo NHDF-Neo); assay: Antioxidant effect on oxidative damages induced by hydrogen peroxide (AlamarBlue viable cell ratio); type: cell-based; settings: for antioxidant effect on hydrogen peroxide: conclusion in words
Description: (§1) For the evaluation of an antioxidant effect on hydrogen peroxide, human neonatal skin fibroblast cells (trade name: Cryo NHDF-Neo, manufactured by Sankyo Junyaku Co., Ltd.) were inoculated to a 24-well plate to have 1×10^5 cells per well. The cells were then cultured for four hours in a medium for cell culture (trade name: D-MEM (1 g/L glucose), manufactured by Wako Pure Chemical Industries) supplemented with 10% bovine fetal serum (herein below, referred to as a “standard medium”) in a 5% CO2 and saturated water vapor atmosphere at 37° C. (degrees Celsius). For the evaluation of an antioxidant effect on AAPH, antibiotics (penicillin, streptomycin, and fungizone) were supplemented to the standard medium and the cells were cultured for one day.
(§2) Subsequently, the culture medium was switched to a medium for cell culture (trade name: D-MEM (1 g/L glucose), manufactured by Wako Pure Chemicals Industries) supplemented with 0.5% bovine fetal serum (herein below, referred to as “low-serum medium”) to which 0.01% or 0.05% carnosine, or 0.1 μM (micro-molar) or 10 μM (micro-molar) D- or L-aspartic acid had been added, and the cells were cultured for two days under atmosphere of 5% CO2 and saturated moisture at 37° C. (degrees Celsius). For the experiment for the evaluation of oxidative damages on AAPH, the culture medium was switched to the medium for cell culture to which 5 ppm or 100 ppm carnosine, or 10 μM (micro-molar) D- or L-aspartic acid had been further added, and the cells were cultured for two days. The low-serum medium described above to which neither carnosine nor aspartic acid had been added was employed as a negative control.
(§3) After culturing for two days, 1 mM or 4 mM hydrogen peroxide, or 50 mM or 100 mM AAPH was added to the medium for evaluating an antioxidant effect, and the antioxidant effect was evaluated for carnosine or aspartic acid. The low-serum medium described above to which neither hydrogen peroxide nor AAPH had been added was employed as a control for evaluation of toxicity of an antioxidant when no oxidant was added.
(§4) Two hours after the addition of hydrogen peroxide or AAPH, AlarmarBlue (trade name: Biosource, manufactured by Biosource International Inc.) was added to have final concentration of 10%. Two to three hours later, according to the methods by Ahmed S. A. et al. (J. Immunol. Method., 170, 211-224 (1994)) and the instructions provided by the manufacturer, the fluorescent intensity of the supernatant was measured with an excitation wavelength of 544 nm, and an emission wavelength of 590 nm.

[2] = test system: human neonatal skin fibroblast cells (Cryo NHDF-Neo); assay: Antioxidant effect on oxidative damages induced by AAPH (AlamarBlue viable cell ratio); type: cell-based; settings: for antioxidant effect on AAPH: conclusion in words
Description: as §1, §2, §3, §4

[3] = 1 mM hydrogen peroxide, test substance 0.1 μM
[4] = 1 mM hydrogen peroxide, test substance 10 μM
[5] = 4 mM hydrogen peroxide, test substance 0.1 μM
[6] = 4 mM hydrogen peroxide, test substance 10 μM
[7] = without addition of an oxidant (toxicity control), test substance 0.1 μM
[8] = without addition of an oxidant (toxicity control), test substance 10 μM
[9] = 100 mM AAPH, test substance 10 μM
[10] = without addition of the oxidant (toxicity control), test substance 10 μM

| Structure (SMILES) | ratio of viable cells [1, 3] [%] | ratio of viable cells [1, 4] [%] | ratio of viable cells [1, 5] [%] | ratio of viable cells [1, 6] [%] | antioxidant effect on hydrogen peroxide [1] | ratio of viable cells [1, 7] [%] | ratio of viable cells [1, 8] [%] | ratio of viable cells [2, 9] [%] | antioxidant effect on AAPH [2] | ratio of viable cells [2, 10] [%] | ratio of viable cells ([1]; 1 mM hydrogen peroxide, test substance 0.01%) [%] | ratio of viable cells ([1]; 1 mM hydrogen peroxide, test substance 0.05%) [%] | ratio of viable cells ([1]; 4 mM hydrogen peroxide, test substance 0.01%) [%] | ratio of viable cells ([1]; 4 mM hydrogen peroxide, test substance 0.05%) [%] | ratio of viable cells ([1]; without addition of an oxidant (toxicity control), test substance 0.01%) [%] | ratio of viable cells ([1]; without addition of an oxidant (toxicity control), test substance 0.05%) [%] | ratio of viable cells ([2]; 100 mM AAPH, test substance 5 ppm) [%] | ratio of viable cells ([2]; 100 mM AAPH, test substance 100 ppm) [%] | ratio of viable cells ([2]; without addition of an oxidant (toxicity control), test substance 5 ppm) [%] | ratio of viable cells ([2]; without addition of an oxidant (toxicity control), test substance 100 ppm) [%] |
| --- | --- | --- | --- | --- | --- | --- | --- | --- | --- | --- | --- | --- | --- | --- | --- | --- | --- | --- | --- | --- |
| N[C@H](CC(=O)O)C(=O)O [D-aspartic acid] | 62 | 63 | 29 | 34 | concentration-dependent antioxidant effect | 86 | 97 | 96 | more potent antioxidant effect on AAPH compared to L-aspartic acid | 102 |  |  |  |  |  |  |  |  |  |  |
| N[C@@H](CC(=O)O)C(=O)O [L-aspartic acid] | 62 | 62 | 33 | 32 | not observed | 88 | 97 | 69 | antioxidant effect on AAPH only | 80 |  |  |  |  |  |  |  |  |  |  |
| NCCC(=O)N[C@@H](Cc1cnc[nH]1)C(=O)O [carnosine, reference compound] |  |  |  |  | confirmed |  |  |  | confirmed |  | 51 | 53 | 21 | 45 | 100 | 97 | 60 | 85 | 93 | 103 |
